Tests used:
[1] = Triacylglycerols (TAG) content in rat serum after bolus intragastric administration of olive oil; assay type: in vivo, Wistar rats; details: 1, 2, and 3 hours after bolus intragastric administration of olive oil; xenon 280 vol. %, krypton 24 vol. %
Protocol: Studies on the effect of xenon on the absorption and transport of triacylglycerols were carried out in an experiment as described [Wang Z., Wang L., Zhang Z., Feng L., Song X., & Wu J. Apolipoprotein A-IV involves in glucose and lipid metabolism of rat//Nutrition & metabolism.-2019.-T. 16.- ? 1.-P. 1-9.], were performed on 12 Wistar rats weighing 320-360 g.
All animals were divided into 3 groups: 1-control, 2-experimental, 3-experimental. The animals were fasted for 6 hours before the experiment, and then rats of the control group (n=4) were injected intragastrically with bolus Extra Virgin olive oil (Aceites Toledo, Spain) at a dose of 1 ml/100 g body weight. […]
An introduction of gases into the oils was carried out using an emulsion production reactor with a volume of 11. […] A content of xenon and krypton in the oil was determined by a gas chromatography method. […]
Triacylglycerols (TAG) content was immediately determined in blood serum using enzyme kits from Chronolab (Spain). For this purpose, 10 μl of serum or standard TAG solution was added to 1 ml of a working reagent, incubated for 5 min at […] in a thermostat and an optical density at 500 nm was determined on a spectrophotometer.

[2] = Omega-3 index in male volunteers after intake of capsules; assay type: in vivo; details: xenon 5-250 vol. %, krypton 5-70 vol. % in Epax 5025 TGN
Protocol: Testing was carried out on 14 male volunteers, age from 38 to 47 years. Control and 5 experimental groups of 2 people each. […] For testing the control group, the product used was Epax Ultra Concentrates (Epax 5025 TGN), manufactured by Epax Norway AS. For experimental group 1 xenon was introduced into the product in concentration of 5 vol. %; for experimental group 2-20 vol. %; for experimental group 3-250 vol. %; for experimental group 4-krypton-5 vol. %; for experimental group 5-24 vol. %; for experimental group 6-70 vol. %. A product saturation with gases was done as described above, but at a small overpressure: krypton at 2.0 mPa, and xenon—0.2 mPa. All products (for control and experimental groups) were encapsulated in soft gelatin capsules weighing 0.5 g. All volunteers took 4 capsules per day, 2 in the morning and 2 in the evening, on an empty stomach. Omega-3 index tests were again taken after 1 month.

[3] = when injected into the body; cited from earlier work

| Structure (SMILES) | TAG levels versus control [1] | effect on Omega-3 index [2] | time to complete elimination of the gas from the body [3] [h] |
| --- | --- | --- | --- |
| [Xe] [xenon] | significant increase | dose-dependent increase | ≤ 4 |
| [Kr] [krypton] | significant increase | dose-dependent increase | – |

Reference: patent US20260123654A1, “METHOD FOR IMPROVING THE BIOAVAILABILITY OF FUNCTIONAL FOOD PRODUCTS” (priority 2022, published 2026)
